# Laboratory results from patent US5380715A, “Ap4 A as a hypotensive agent” (Fujirebio Inc., priority 1992, dated 1995).
# Entries after “also recorded” stand apart in the source; their conditions may differ.
# How the values were obtained:
# [1] = test system: dogs; assay: Gradual hypotension during anesthesia in dogs (hemodynamics, blood gas); assay type: in vivo, mongrel dogs; conditions: dog
# Description: Dogs were anesthetized with enflurane. […] The mean blood pressure (B.P.), heart rate (H.R.), cardiac output (C.O.), arterial oxygen tension (PaO2), mixed venos oxygen tension (PvO2), arterial carbonate tension (PaCO2), mixed venous carbonate tension (PvCO2), arterial pH (pH-a), mixed venous pH (pH-v), and base excess thereof were measured.
# Mongrel dogs weighing 9 to 17 kg were anesthetized with intravenous thiopental 20 mg/kg by bolus injection, followed by 1% enflurane in 40% O2 /N2 after endotracheal intubation. […] Bilateral femoral arteries were catheterized, one for the determination of blood pressure and the other for blood sampling.
# Access to the bilateral femoral veins was obtained for the administration of Ap4A, PG E1 or nitroglycerin and for the insertion of a ballon-tipped thermodilution catheter. The electrocardiogram was continuously monitored. The control values were obtained before the administration of each of the above-mentioned three agents. Each agent was administered using a syringe pump at titrated doses to produce gradual 20%, 40%, 50%, 60%, and 80% decreases in the mean arterial pressure (MAP) from the control value.
# After the target blood pressure and stable hemodynamic conditions were reached, the following parameters were measured: heart rate (HR), mean pulmonary artery pressure (PAM), pulmonary capillary wedge pressure (PCWP), and central venous pressure (CVP). Cardiac output (CO) was determined by the thermodilution method. Gas analyses of arterial and mixed venous bloods were performed using a blood gas analyzer.
# [2] = test system: rats; assay: Effects on cerebral blood flow, blood pressure and heart rate in anesthetized rats; assay type: in vivo, male SD rats; conditions: rat
# Description: Male SD rats (Charles River Japan Inc.) were anesthetized with intravenous urethane (0.5 g/kg)+α-chloralose (80 mg/kg).
# A femoral artery was catheterized to monitor the blood pressure and heart rate, while a femoral vein was catheterized for the aministration of each of the test drugs.
# The head of each rat was fixed to a brain position fixing device and a hole was made at a top portion of the cranium. A laser blood flow probe was mounted on the cranium so as to touch the surface of the cerebral cortex through the hole, whereby the cerebral blood flow thereof was measured. A predetermined amount of Ap4A was applied by bolus injection and by infusion.
# [3] = enflurane, at -20% blood pressure
# [4] = enflurane, at -40% blood pressure
# [5] = enflurane, at -50% blood pressure
# [6] = enflurane, at -60% blood pressure
# [7] = enflurane, at -80% blood pressure
compound,measurement,setting,value
"Nc1ncnc2c1ncn2[C@@H]1O[C@H](COP(=O)(O)OP(=O)(O)OP(=O)(O)OP(=O)(O)OC[C@H]2O[C@@H](n3cnc4c(N)ncnc43)[C@H](O)[C@@H]2O)[C@@H](O)[C@H]1O [Ap4A, diadenosine 5',5'""-p^1,p^4 -tetraphosphate]",fall in blood pressure attainable,[1]; enflurane,~60%
same,Arterial Carbonate Tension PaCO2,[1]; [3],36.0 ± 1.0 mmHg
same,Arterial Oxygen Tension PaO2,[1]; [3],252.8 ± 7.2 mmHg
same,Arterial pH (pH-a),[1]; [3],7.337 ± 0.013
same,Body Temperature BT,[1]; [3],37.2 ± 0.6 °C
same,Cardiac Output C.O.,[1]; [3],2.42 ± 0.25 L/min
same,Central Venous Pressure CVP,[1]; [3],3.77 ± 0.25 mmHg
same,Heart Rate H.R.,[1]; [3],160.1 ± 7.5 beats/min
same,Hematocrit Value Hct,[1]; [3],40.6 ± 2.1%
same,Mean Blood Pressure B.P. (mean),[1]; [3],104.3 ± 3.3
same,Mean Blood Pressure B.P. (Δ%),[1]; [3],-19.8 ± 0.4%
same,Mixed Venous Carbonate Tension PvCO2,[1]; [3],39.3 ± 1.2 mmHg
same,Mixed Venous Oxygen Tension PvO2,[1]; [3],61.6 ± 2.4 mmHg
same,Mixed Venous pH (pH-v),[1]; [3],7.308 ± 0.008
same,Pulmonary Artery Pressure PAM,[1]; [3],18.4 ± 1.5 mmHg
same,Pulmonary Capillary Wedge Pressure PCWP,[1]; [3],8.3 ± 1.3 mmHg
same,Base Excess BE,"[1]; enflurane, at -20% blood pressure (Table 1)",-5.39 ± 0.77 mBq-1
same,Arterial Carbonate Tension PaCO2,[1]; [4],35.3 ± 1.0 mmHg
same,Arterial Oxygen Tension PaO2,[1]; [4],253.8 ± 7.6 mmHg
same,Arterial pH (pH-a),[1]; [4],7.341 ± 0.018
same,Body Temperature BT,[1]; [4],37.3 ± 0.6 °C
same,Cardiac Output C.O.,[1]; [4],2.22 ± 0.15 L/min
same,Central Venous Pressure CVP,[1]; [4],3.89 ± 0.29 mmHg
same,Heart Rate H.R.,[1]; [4],154.9 ± 6.9 beats/min
same,Hematocrit Value Hct,[1]; [4],40.6 ± 1.7%
same,Mean Blood Pressure B.P. (mean),[1]; [4],78.2 ± 2.3
same,Mean Blood Pressure B.P. (Δ%),[1]; [4],-39.8 ± 0.4%
same,Mixed Venous Carbonate Tension PvCO2,[1]; [4],36.6 ± 1.3 mmHg
same,Mixed Venous Oxygen Tension PvO2,[1]; [4],63.3 ± 1.7 mmHg
same,Mixed Venous pH (pH-v),[1]; [4],7.311 ± 0.009
same,Pulmonary Artery Pressure PAM,[1]; [4],17.8 ± 1.6 mmHg
same,Pulmonary Capillary Wedge Pressure PCWP,[1]; [4],8.0 ± 1.2 mmHg
same,Base Excess BE,"[1]; enflurane, at -40% blood pressure (Table 1)",-5.52 ± 0.89 mBq-1
same,Arterial Carbonate Tension PaCO2,[1]; [5],35.0 ± 1.1 mmHg
same,Arterial Oxygen Tension PaO2,[1]; [5],252.5 ± 7.5 mmHg
same,Arterial pH (pH-a),[1]; [5],7.338 ± 0.011
same,Body Temperature BT,[1]; [5],37.2 ± 0.6 °C
same,Cardiac Output C.O.,[1]; [5],2.02 ± 0.16 L/min
same,Central Venous Pressure CVP,[1]; [5],3.64 ± 0.35 mmHg
same,Heart Rate H.R.,[1]; [5],144.0 ± 7.3 beats/min
same,Hematocrit Value Hct,[1]; [5],40.7 ± 1.7%
same,Mean Blood Pressure B.P. (mean),[1]; [5],65.4 ± 2.0
same,Mean Blood Pressure B.P. (Δ%),[1]; [5],-49.6 ± 0.4%
same,Mixed Venous Carbonate Tension PvCO2,[1]; [5],36.7 ± 1.4 mmHg
same,Mixed Venous Oxygen Tension PvO2,[1]; [5],60.5 ± 2.1 mmHg
same,Mixed Venous pH (pH-v),[1]; [5],7.308 ± 0.011
same,Pulmonary Artery Pressure PAM,[1]; [5],16.3 ± 1.4 mmHg
same,Pulmonary Capillary Wedge Pressure PCWP,[1]; [5],7.6 ± 1.2 mmHg
same,Base Excess BE,"[1]; enflurane, at -50% blood pressure (Table 1)",-5.77 ± 0.66 mBq-1
same,Arterial Carbonate Tension PaCO2,[1]; [6],34.6 ± 1.3 mmHg
same,Arterial Oxygen Tension PaO2,[1]; [6],253.8 ± 7.7 mmHg
same,Arterial pH (pH-a),[1]; [6],7.315 ± 0.010
same,Body Temperature BT,[1]; [6],37.2 ± 0.6 °C
same,Cardiac Output C.O.,[1]; [6],1.55 ± 0.20 L/min
same,Central Venous Pressure CVP,[1]; [6],3.63 ± 0.44 mmHg
same,Dose,[1]; [6],242.4 ± 32.8 µg/kg/min
same,Heart Rate H.R.,[1]; [6],131.6 ± 7.5 beats/min
same,Hematocrit Value Hct,[1]; [6],41.9 ± 2.2%
same,Mean Blood Pressure B.P. (mean),[1]; [6],51.7 ± 1.7
same,Mean Blood Pressure B.P. (Δ%),[1]; [6],-60.3 ± 0.2%
same,Mixed Venous Carbonate Tension PvCO2,[1]; [6],38.1 ± 1.8 mmHg
same,Mixed Venous Oxygen Tension PvO2,[1]; [6],54.9 ± 1.8 mmHg
same,Mixed Venous pH (pH-v),[1]; [6],7.292 ± 0.011
same,Pulmonary Artery Pressure PAM,[1]; [6],14.3 ± 1.1 mmHg
same,Pulmonary Capillary Wedge Pressure PCWP,[1]; [6],6.7 ± 10.9 mmHg
same,Base Excess BE,"[1]; enflurane, at -60% blood pressure (Table 1)",-7.30 ± 0.64 mBq-1
same,Arterial Carbonate Tension PaCO2,[1]; [7],37.5 ± 1.1 mmHg
same,Arterial Oxygen Tension PaO2,[1]; [7],245.6 ± 9.2 mmHg
same,Arterial pH (pH-a),[1]; [7],7.260 ± 0.010
same,Body Temperature BT,[1]; [7],37.4 ± 0.6 °C
same,Cardiac Output C.O.,[1]; [7],1.16 ± 0.11 L/min
same,Central Venous Pressure CVP,[1]; [7],3.51 ± 0.60 mmHg
same,Dose,[1]; [7],3895.2 ± 675.7 µg/kg/min
same,Heart Rate H.R.,[1]; [7],98.6 ± 4.7 beats/min
same,Hematocrit Value Hct,[1]; [7],42.8 ± 2.2%
same,Mean Blood Pressure B.P. (mean),[1]; [7],28.8 ± 1.0
same,Mean Blood Pressure B.P. (Δ%),[1]; [7],-77.8 ± 0.8%
same,Mixed Venous Carbonate Tension PvCO2,[1]; [7],44.4 ± 1.4 mmHg
same,Mixed Venous Oxygen Tension PvO2,[1]; [7],53.3 ± 2.8 mmHg
same,Mixed Venous pH (pH-v),[1]; [7],7.228 ± 0.014
same,Pulmonary Artery Pressure PAM,[1]; [7],14.3 ± 1.2 mmHg
same,Pulmonary Capillary Wedge Pressure PCWP,[1]; [7],7.4 ± 1.0 mmHg
same,Base Excess BE,"[1]; enflurane, at -80% blood pressure (Table 1)",-9.36 ± 0.79 mBq-1
same,effect on arterial pH / venous pH,[1]; result in words,does not decrease arterial pH and venous pH up to a less than 60% fall in blood pressure; also recorded: does not substantially decrease arterial pH in practical use
same,effect on base excess,[1]; result in words,does not make any significant changes in base excess
same,effect on carbonate tension,[1]; result in words,"tendency to decrease arterial carbonate tension (PaCO2), and mixed venous carbonate tension (PvCO2); also recorded: tendency to decrease arterial carbonate tension (PaCO2), mixed venous carbonate tension (PvCO2), or actually decreases PaCO2 and PvCO2"
same,effect on cardiac output,[1]; result in words,"cardiac output is significantly increased at a 20% fall in blood pressure; also recorded: tendency to significantly increase the cardiac output when a 20% fall in blood pressure is attained, and the cardiac output is continuously increased until a 60% fall in blood pressure is attained"
same,effect on heart rate,[1]; result in words,"when a 60% or more fall in blood pressure is attained, Ap4A is seem to have significant adverse effects on the heart rate; also recorded: significant effect on heart rate is that required for a 60% or more fall in blood pressure"
same,effect on oxygen tension,[1]; result in words,"tendency to increase arterial oxygen tension (PaO2), and mixed venous oxygen tension (PvO2); also recorded: tendency to increase arterial oxygen tension (PaO2), and mixed venous oxygen tension (PvCO2), or actually increases PaO2 and PvO2"
same,hypotensive effect compared with PG E1 / nitroglycerin,[1]; result in words,the same hypotensive effect as that of PG E1; also recorded: comparable with that of PG E1 and is better than that of nitroglycerin
same,B.P. Δ%,[2]; bolus injection 0.1 μg/kg,0%
same,C.B.F. Δ%,[2]; bolus injection 0.1 μg/kg,2.7%
same,H.R. Δ%,[2]; bolus injection 0.1 μg/kg,4.0%
same,B.P. Δ%,[2]; bolus injection 0.3 μg/kg,0%
same,C.B.F. Δ%,[2]; bolus injection 0.3 μg/kg,7.9%
same,H.R. Δ%,[2]; bolus injection 0.3 μg/kg,-7.0%
same,B.P. Δ%,[2]; bolus injection 1 μg/kg,5.0 ± 2.9%
same,C.B.F. Δ%,[2]; bolus injection 1 μg/kg,9.3 ± 2.5%
same,H.R. Δ%,[2]; bolus injection 1 μg/kg,10.3 ± 10.1%
same,B.P. Δ%,[2]; bolus injection 3 μg/kg,-6.2 ± 5.0%
same,C.B.F. Δ%,[2]; bolus injection 3 μg/kg,10.0 ± 2.0%
same,H.R. Δ%,[2]; bolus injection 3 μg/kg,4.6 ± 3.4%
same,B.P. Δ%,[2]; bolus injection 10 μg/kg,-9.9 ± 4.6%
same,C.B.F. Δ%,[2]; bolus injection 10 μg/kg,21.7 ± 6.0%
same,H.R. Δ%,[2]; bolus injection 10 μg/kg,3.2 ± 2.0%
same,B.P. Δ%,[2]; bolus injection 30 μg/kg,-23.2 ± 3.5%
same,C.B.F. Δ%,[2]; bolus injection 30 μg/kg,16.8 ± 3.5%
same,H.R. Δ%,[2]; bolus injection 30 μg/kg,6.4 ± 1.2%
same,B.P. Δ%,[2]; bolus injection 100 μg/kg,-34.4 ± 2.5%
same,C.B.F. Δ%,[2]; bolus injection 100 μg/kg,15.8 ± 4.0%
same,H.R. Δ%,[2]; bolus injection 100 μg/kg,7.4 ± 3.5%
same,B.P. Δ%,[2]; bolus injection 300 μg/kg,-40.5 ± 5.2%
same,C.B.F. Δ%,[2]; bolus injection 300 μg/kg,9.8 ± 4.0%
same,H.R. Δ%,[2]; bolus injection 300 μg/kg,10.9 ± 4.5%
same,B.P. Δ%,[2]; bolus injection 1 mg/kg,-50.4 ± 1.4%
same,C.B.F. Δ%,[2]; bolus injection 1 mg/kg,8.5 ± 3.4%
same,H.R. Δ%,[2]; bolus injection 1 mg/kg,7.4 ± 6.0%
same,B.P. Δ%,[2]; bolus injection 3 mg/kg,-54.0 ± 2.5%
same,C.B.F. Δ%,[2]; bolus injection 3 mg/kg,23.7 ± 9.3%
same,H.R. Δ%,[2]; bolus injection 3 mg/kg,6.2 ± 21.1%
same,B.P. Δ%,[2]; bolus injection 10 mg/kg,-63.5 ± 5.6%
same,C.B.F. Δ%,[2]; bolus injection 10 mg/kg,46.3 ± 11.5%
same,H.R. Δ%,[2]; bolus injection 10 mg/kg,-78.8 ± 2.7%
same,B.P. Δ%,[2]; bolus injection 30 mg/kg,-60.7 ± 7.0%
same,C.B.F. Δ%,[2]; bolus injection 30 mg/kg,34.0 ± 16.9%
same,cerebral blood flow,"[2]; bolus injection, result in words",improved by bolus injection of Ap4A
same,increase in C.B.F.,"[2]; bolus, when about 20-40% fall in blood pressure",10-20%
same,cerebral blood flow,"[2]; continuous administration, result in words (FIG. 2)",The same effects were also observed in the continuous administration of Ap4A; also recorded: Cerebral blood flow was increased during continuous administration of Ap4A
